One block for each compound: values may come before it.
How the values were obtained:
[1] = test system: NCI-H226 lung tumor model; assay: Mouse xenograft NCI-H226 tumors; type: in vivo, NOD SCID mice
From the text: This study evaluated the in vivo anti-tumor efficacy of test compounds in NOD SCID mice for treatment of NCI-H226 lung tumor model.
• Species: Mus Musculus • Strain: NOD SCID • Age: 6-8 weeks • Sex: female • Body weight: 18-22 g • Number of animals inoculated with tumor: 69 mice • Number of animals enrolled in the treatment: 40 mice • Number of unenrolled animals: 29 mice • Animal supplier: Beijing Vital River Biotechnology Experimental Animal Co. Ltd Certification number: 20221110Abzz0619000681
The NCI-H226 tumor cells were maintained in vitro in RPMI 1640 medium supplemented with 10% Fetal bovine serum and 1% Antibiotic-Antimycotic at 37° C. in an atmosphere of 5% CO2 in air. The tumor cells were routinely subcultured twice weekly by trypsin-EDTA. The cells growing in an exponential growth phase were harvested and counted for tumor inoculation.
Each mouse was inoculated subcutaneously at the right flank with NCI-H226 tumor cells (10×10^6+50% matrigel/0.2 mL) for tumor development. Animals were marked with earrings with unique 6 significant figure number for identification. The treatments were started when the average tumor volume reached an average size of 154 mm^3.
The major endpoint was to determine if the tumor growth could be delayed or mice could be cured. Tumor volume was measured twice a week in two dimensions using a caliper, and the volume was expressed in mm^3 using the formula: V=0.5 a×b^2 where a and b are the long and short diameters of the tumor, respectively. The tumor size was then used for calculations of T/C value. The TGI value (in percent) or the T/C value (in percent) is an indication of antitumor effectiveness; T and C are the mean tumor volumes or tumor weights of the treated and control groups, respectively, on a given day.
TGI was calculated for each group using the formula: TGI (%)=[1−(Ti−T0)/(Vi−V0)]×100; Ti is the average tumor volume of a treatment group on a given day, T0 is the average tumor volume of the treatment group on the day of treatment start, Vi is the average tumor volume of the vehicle control group on the same day with T1, and V0 is the average tumor volume of the vehicle group on the day of treatment start.
Relative T/C (%)=TRTV/CRTV×100 (RTV (%)=Vt/V0×100, Vt is the average tumor volume on a given day, V0 is the average tumor volume on the first day of treatment. TRTV is the RTV of a treatment group, and the CRTV is the RTV of the vehicle control group.)
Tumor weight was measured at the study termination. The Tweight/Cweight value (in percent) was calculated according to the formula: Tweight/Cweight (%)=TWtreatment/TWvehicle×100, where T and C are the mean tumor weights of the treatment and control groups respectively
Summary statistics, including mean and the standard error of the mean (SEM), were provided for the tumor volume of each group at each time point.
Statistical analysis of difference in tumor volume among the groups was conducted on the data obtained at the end of the study.
One-tailed T test was performed to compare tumor volumes between two groups. All data were analyzed using GraphPad Prism 6.0. p<0.05 is considered to be statistically significant.
The antitumor effectiveness of the study was analyzed on PG-D28 when vehicle group reached 472 mm^3.

NCI-H28 cells = assay: Proliferation and cell viability assay, Cell Titer One; type: cell-based; conditions: Homo sapiens, NCI-H28, 144 h; Cell Titer One assay, non-responder, 6 days
Protocol: (§1) Cell proliferation of a TEAD dependent NF2-null mesothelioma cell line, NCI-H226 was assayed using two different protocols. Results were confirmed in two different TEAD-non-dependent lung cancer cell lines, H23 and H28, were used as non-responsive controls, as indicated:
b) Cell Titer One (Promega, #G3582). The effect of the TEAD inhibitors disclosed herein on cell proliferation was also determined using the Promega Substrate Cell Titer Aqueous One Solution Reagent. The TEAD inhibitors were evaluated for the effects on cell proliferation responder (H226) and non-responder negative control cancer cell lines (CAMA1, H28), as well as non-transformed normal human cells (HUVEC, NHDF). Dissociated cells were resuspend in media (depending on cell line, either in DMEM, RPMI, or EMEM all with 10% FBS, with gentamicin as an antibiotic). Cells were seeded at 100 μL/well at 750 cells per well in 96-well plates and allowed to settle and attach. After an incubation of 24 hrs (37° C., 5% CO2, humidified incubator), 100 μL of test compound-containing media was added. A dilution series of 2000× concentrated stock of test compounds was prepared in DMSO, for final concentrations from 0.1 to 10,000 nM. After addition of test compound-containing media, cells were incubated for 6 days at 37° C., 5% CO2, humidified incubators). […] The OD was measured using Vmax [Molecular Devices] spectrophotometer plate reader. […]

NCI-H226 cells = assay: as above; type: cell-based, human; conditions: Cell Titer One assay, 6 days
Protocol: as §1
b) Cell Titer One (Promega, #G3582). The effect of the TEAD inhibitors disclosed herein on cell proliferation was also determined using the Promega Substrate Cell Titer Aqueous One Solution Reagent. The TEAD inhibitors were evaluated for the effects on cell proliferation responder (H226) and non-responder negative control cancer cell lines (CAMA1, H28), as well as non-transformed normal human cells (HUVEC, NHDF). Dissociated cells were resuspend in media (depending on cell line, either in DMEM, RPMI, or EMEM all with 10% FBS, with gentamicin as an antibiotic). Cells were seeded at 100 μL/well at 750 cells per well in 96-well plates and allowed to settle and attach. After an incubation of 24 hrs (37° C., 5% CO2, humidified incubator), 100 μL of test compound-containing media was added. A dilution series of 2000× concentrated stock of test compounds was prepared in DMSO, for final concentrations from 0.1 to 10,000 nM. After addition of test compound-containing media, cells were incubated for 6 days at 37° C., 5% CO2, humidified incubators). To measure cell density, 20 μL of Promega Substrate Cell Titer 96 Aqueous One Solution Reagent (Promega, #G3582) to each well was added according to the manufacturer's instructions. Plates were incubated at 37° C. for usually 3-8 hrs, to reach in the control cells (without compound) an OD of 1.5 at 490 nm. The OD was measured using Vmax [Molecular Devices] spectrophotometer plate reader. Media only-wells were used as background controls and cell densities normalized to DMSO vehicle control. EC50 were taken as the concentration achieving 50% of maximal growth inhibition.
For IC50 and EC50 data “A” indicates a value of less than 0.2 μM; the symbol “B” indicates a value in the range of from 0.2 μM up to 1 μM; and the symbol “C” indicates a value of greater than 1 μM. ND: no data.

IC50 (NCI-H28 cells): > 1000 nM | IC50 (NCI-H226 cells; Homo sapiens, NCI-H226, 144 h): < 200 nM
SMILES: Cn1cnc(-c2cc([C@@]3(C)CCNC3=O)ccc2Nc2ccc(C(F)(F)F)cc2)c1 (single isomer, unassigned) [Compound 5, 3-methyl-3-(3-(1-methyl-1H-imidazol-4-yl)-4-((4-(trifluoromethyl)phenyl)amino)phenyl)pyrrolidin-2-one]
Tumor size (mean ± SEM) ([1]; day 0, 5 mg/kg, PO BID): 154 ± 13 mm^3 | Tumor size (mean ± SEM) ([1]; day 0, 15 mg/kg, PO BID): 154 ± 15 mm^3 | Tumor size (mean ± SEM) ([1]; day 0, 15 mg/kg, PO QD): 154 ± 15 mm^3 | Tumor size (mean ± SEM) ([1]; day 4, 5 mg/kg, PO BID): 140 ± 10 mm^3 | Tumor size (mean ± SEM) ([1]; day 4, 15 mg/kg, PO BID): 127 ± 14 mm^3 | Tumor size (mean ± SEM) ([1]; day 4, 15 mg/kg, PO QD): 153 ± 11 mm^3 | Tumor size (mean ± SEM) ([1]; day 7, 5 mg/kg, PO BID): 129 ± 5 mm^3 | Tumor size (mean ± SEM) ([1]; day 7, 15 mg/kg, PO BID): 115 ± 12 mm^3 | Tumor size (mean ± SEM) ([1]; day 7, 15 mg/kg, PO QD): 149 ± 11 mm^3 | Tumor size (mean ± SEM) ([1]; day 10, 5 mg/kg, PO BID): 124 ± 6 mm^3 | Tumor size (mean ± SEM) ([1]; day 10, 15 mg/kg, PO BID): 110 ± 10 mm^3 | Tumor size (mean ± SEM) ([1]; day 10, 15 mg/kg, PO QD): 148 ± 12 mm^3 | Tumor size (mean ± SEM) ([1]; day 13, 5 mg/kg, PO BID): 82 ± 8 mm^3 | Tumor size (mean ± SEM) ([1]; day 13, 15 mg/kg, PO BID): 84 ± 8 mm^3 | Tumor size (mean ± SEM) ([1]; day 13, 15 mg/kg, PO QD): 116 ± 26 mm^3 | Tumor size (mean ± SEM) ([1]; day 17, 5 mg/kg, PO BID): 77 ± 7 mm^3 | Tumor size (mean ± SEM) ([1]; day 17, 15 mg/kg, PO BID): 62 ± 6 mm^3 | Tumor size (mean ± SEM) ([1]; day 17, 15 mg/kg, PO QD): 94 ± 15 mm^3 | Tumor size (mean ± SEM) ([1]; day 20, 5 mg/kg, PO BID): 73 ± 6 mm^3 | Tumor size (mean ± SEM) ([1]; day 20, 15 mg/kg, PO BID): 63 ± 7 mm^3 | Tumor size (mean ± SEM) ([1]; day 20, 15 mg/kg, PO QD): 95 ± 16 mm^3 | Tumor size (mean ± SEM) ([1]; day 24, 5 mg/kg, PO BID): 55 ± 4 mm^3 | Tumor size (mean ± SEM) ([1]; day 24, 15 mg/kg, PO BID): 49 ± 4 mm^3 | Tumor size (mean ± SEM) ([1]; day 24, 15 mg/kg, PO QD): 85 ± 8 mm^3 | T/C ([1]; day 28, 5 mg/kg, PO BID): 11.2% | TGI ([1]; day 28, 5 mg/kg, PO BID): 131.3% | Tumor size (mean ± SEM) ([1]; day 28, 5 mg/kg, PO BID): 53 ± 5 mm^3 | Tumor Volume (mean ± SEM) ([1]; day 28, 5 mg/kg, PO BID (Table 20)): 53 ± 5 mm^3 | T/C ([1]; day 28, 15 mg/kg, PO BID): 9.0% | TGI ([1]; day 28, 15 mg/kg, PO BID): 134.2% | Tumor size (mean ± SEM) ([1]; day 28, 15 mg/kg, PO BID): 43 ± 6 mm^3 | Tumor Volume (mean ± SEM) ([1]; day 28, 15 mg/kg, PO BID (Table 20)): 43 ± 6 mm^3 | T/C ([1]; day 28, 15 mg/kg, PO QD): 17.0% | TGI ([1]; day 28, 15 mg/kg, PO QD): 122.3% | Tumor size (mean ± SEM) ([1]; day 28, 15 mg/kg, PO QD): 82 ± 12 mm^3 | Tumor Volume (mean ± SEM) ([1]; day 28, 15 mg/kg, PO QD (Table 20)): 82 ± 12 mm^3

IC50 (NCI-H226 cells): < 200 nM
SMILES: Cn1cnc(-c2cc(C3(C)NC(=O)NC3=O)ccc2Nc2ccc(C(F)(F)F)cc2)c1 (single isomer, unassigned) [Compound 15, 5-methyl-5-(3-(1-methyl-1H-imidazol-4-yl)-4-((4-(trifluoromethyl)phenyl)amino)phenyl)imidazolidine-2,4-dione]
